Key:
[1] = test system: wheat powdery mildew; experiment: Fungicidal activity tests against wheat powdery mildew (wheat seedlings sprayed at 200 mg/L, greenhouse); assay type: in vivo; details: 200 mg/L spray, inoculated 24 hours later, visual assessment 7 days after treatment
Description: Compounds for test were weighed quantitatively and dissolved into acetone of suitable volume (acetone's volume is 10% of the whole solution's volume), then diluted by water containing 0.1% (volume percent, the same below) Tween 80, into 200 mg/L. By turntable crop sprayer, wheat seedlings with 1 leaf and 1 core were treated under the spray pressure of 1.5 kg/cm^2 and the spray volume of about 1000 L/hm^2, then naturally dry, 24 hours later wheat powdery mildew spore was inoculated, and then continue being incubated in greenhouse. Assessment of efficacy was carried out by visual observation 7 days later after treatment.

[2] = test system: Rice false smut; experiment: In vitro fungicidal activity test, PDA mycelium growth inhibition method; assay type: cell-based
[3] = test system: Cucumber wilt blight; experiment: as above; assay type: cell-based; details: 27° C., 3-4 days, read-out: Effect of mycelium growth inhibition (%)
[4] = test system: wheat powdery mildew; experiment: Curative activity test against wheat powdery mildew; assay type: in vivo; details: for control %: curative, sprayed 4 days after inoculation
[5] = test system: Rice blast; experiment: microbe, parasite or virus in culture; assay type: cell-based
[6] = test system: wheat powdery mildew; experiment: Protective activity test against wheat powdery mildew; assay type: in vivo; details: for control %: protective, assessed 7 days later
[7] = test system: Wheat Fusarium Head Blight; experiment: microbe, parasite or virus in culture; assay type: cell-based; details: read-out: Effect of mycelium growth inhibition (%)
[8] = test system: Cucumber scab; experiment: In vitro fungicidal activity test, PDA mycelium growth inhibition method; assay type: cell-based
Description: (§1) PDA mycelium growth inhibition method was used for this test. Compound 13 (content 95%) was weighed quantitatively and dissolved in acetone of suitable volume (acetone's volume is 10% of the whole solution's volume), then diluted with water containing 0.1% Tween 80 into the solution of the medicament at the needed concentration, and then diluted with the same water into a series of concentration for tests. The medicament for test diluted by water was added quantitatively into the heating full-nutrition culture medium, to form culture medium including the medicament at a series of concentration, and then poured into 9-cm culture dish, after cooling, inoculated with the pathogen cake (diameter 0.5 cm) for test which was incubated in vitro, each treatment was repeated tree times. After treatment, placed in growth chamber in 27° C., 3-4 days later, observe the growth of the blank contrast fungi colony, the diameter of fungi colony was investigated and measured, and corrected inhibition ratio was calculated.

[9] = test system: Wheat root rot; experiment: as above; assay type: cell-based
Description: as §1

[10] = test system: Rice sheath blight; experiment: as above; assay type: cell-based
[11] = test system: Cucumber anthracnose; experiment: as above; assay type: cell-based
[12] = test system: corn curvalaria leaf spot; experiment: as above; assay type: cell-based
[13] = Pyricularia oryzae, read-out: Effect of mycelium growth inhibition (%)
[14] = 0.1 mg/L, 27° C., 3-4 days, read-out: Effect of mycelium growth inhibition (%)
[15] = 1 mg/L, 27° C., 3-4 days, read-out: Effect of mycelium growth inhibition (%)
[16] = 10 mg/L, 27° C., 3-4 days, read-out: Effect of mycelium growth inhibition (%)

COC(=O)N(OC)c1ccccc1COc1nc(Cl)c(Cl)cc1Cl [Compound 13, Methyl N-methoxy-N-(2-((3,5,6-trichloropyridin-2-yl)oxymethyl)phenyl)carbamate]
control % [1]: 100%
inhibition at 0.1 µg/mL ([2]; Rice false smut, 0.1 mg/L, 27° C., 3-4 days, read-out: Effect of mycelium growth inhibition (%)): 19.5%
inhibition at 1 µg/mL ([2]; Rice false smut, 1 mg/L, 27° C., 3-4 days, read-out: Effect of mycelium growth inhibition (%)): 42.8%
inhibition at 10 µg/mL ([2]; Rice false smut, 10 mg/L, 27° C., 3-4 days, read-out: Effect of mycelium growth inhibition (%)): 79.2%
fungicidal activity (in words) ([2]; rice false smut, in vitro): outstanding
inhibition at 0.1 µg/mL ([3]; 0.1 mg/L): 27.1%
inhibition at 1 µg/mL ([3]; 1 mg/L): 33.6%
inhibition at 10 µg/mL ([3]; 10 mg/L): 51.4%
control % ([4]; concentration 0.78 mg/L): 10%
control % ([4]; concentration 1.56 mg/L): 35%
control % ([4]; concentration 3.125 mg/L): 70%
control % ([4]; concentration 6.25 mg/L): 100%
control % ([4]; concentration 12.5 mg/L): 100%
curative activity compared with the standard chemical (in words) ([4]; versus kresoxim-methyl): better than the one of standard chemical
inhibition at 0.1 µg/mL [5, 13]: 36.6%
inhibition at 1 µg/mL [5, 13]: 62.6%
inhibition at 10 µg/mL [5, 13]: 77.2%
fungicidal activity (in words) ([5]; rice blast, in vitro): outstanding
control % ([6]; concentration 0.78 mg/L): 100%
control % ([6]; concentration 1.56 mg/L): 100%
control % ([6]; concentration 3.125 mg/L): 100%
control % ([6]; concentration 6.25 mg/L): 100%
control % ([6]; concentration 12.5 mg/L): 100%
preventative activity compared with the standard chemical (in words) ([6]; versus Kresoxim-methyl, 0.78-12.5 mg/L): obviously better than the one of the standard chemical
melting point: 94 to 95 °C
inhibition at 0.1 µg/mL [7]: 20.3%
inhibition at 1 µg/mL [7]: 21.1%
inhibition at 10 µg/mL [7]: 42.9%
inhibition at 0.1 µg/mL [8, 14]: 28.7%
inhibition at 1 µg/mL [8, 15]: 50%
inhibition at 10 µg/mL [8, 16]: 65%
fungicidal activity (in words) ([8]; in vitro): outstanding
inhibition at 0.1 µg/mL ([9]; Wheat root rot, 0.1 mg/L, 27° C., 3-4 days, read-out: Effect of mycelium growth inhibition (%)): 32.6%
inhibition at 1 µg/mL ([9]; Wheat root rot, 1 mg/L, 27° C., 3-4 days, read-out: Effect of mycelium growth inhibition (%)): 46.3%
inhibition at 10 µg/mL ([9]; Wheat root rot, 10 mg/L, 27° C., 3-4 days, read-out: Effect of mycelium growth inhibition (%)): 61.1%
fungicidal activity (in words) ([9]; wheat root rot, in vitro): outstanding
inhibition at 0.1 µg/mL ([10]; Rice sheath blight, 0.1 mg/L, 27° C., 3-4 days, read-out: Effect of mycelium growth inhibition (%)): 42.7%
inhibition at 1 µg/mL ([10]; Rice sheath blight, 1 mg/L, 27° C., 3-4 days, read-out: Effect of mycelium growth inhibition (%)): 59.2%
inhibition at 10 µg/mL ([10]; Rice sheath blight, 10 mg/L, 27° C., 3-4 days, read-out: Effect of mycelium growth inhibition (%)): 78.6%
fungicidal activity (in words) ([10]; rice sheath blight, in vitro): outstanding
inhibition at 0.1 µg/mL ([11]; Cucumber anthracnose, 0.1 mg/L, 27° C., 3-4 days, read-out: Effect of mycelium growth inhibition (%)): 42.8%
inhibition at 1 µg/mL ([11]; Cucumber anthracnose, 1 mg/L, 27° C., 3-4 days, read-out: Effect of mycelium growth inhibition (%)): 62.8%
inhibition at 10 µg/mL ([11]; Cucumber anthracnose, 10 mg/L, 27° C., 3-4 days, read-out: Effect of mycelium growth inhibition (%)): 72.4%
fungicidal activity (in words) ([11]; cucumber anthracnose, in vitro): outstanding
inhibition at 0.1 µg/mL [12, 14]: 55.4%
inhibition at 1 µg/mL [12, 15]: 56.2%
inhibition at 10 µg/mL [12, 16]: 70.2%
fungicidal activity (in words) ([12]; in vitro): outstanding

COC(=O)N(OC)c1ccccc1CNc1c(Cl)c(F)nc(F)c1Cl [Compound 49, Methyl N-(2-((3,5-dichloro-2,6-difluoropyridin-4-yl)aminomethyl)phenyl)-N-methoxycarbamate]
control % [1]: 85%
melting point: 82 to 83 °C

CO/N=C(/C(=O)OC)c1ccccc1COc1ccccc1C [Kresoxim-methyl, reference compound]
control % ([4]; concentration 0.78 mg/L): 0%
control % ([4]; concentration 1.56 mg/L): 10%
control % ([4]; concentration 3.125 mg/L): 15%
control % ([4]; concentration 6.25 mg/L): 75%
control % ([4]; concentration 12.5 mg/L): 100%
control % ([6]; concentration 0.78 mg/L): 15%
control % ([6]; concentration 1.56 mg/L): 40%
control % ([6]; concentration 3.125 mg/L): 70%
control % ([6]; concentration 6.25 mg/L): 98%
control % ([6]; concentration 12.5 mg/L): 100%

— patent publication US7666884B2, “N-(2-substituted phenyl)-N-methoxycarbamates and their preparation and use thereof” (priority 2005, dated 2010)
